Reference: publication PMC11651915, “Small molecule protein assembly modulators with pan-cancer therapeutic efficacy” (Open Biology, 2024)
pIC50: −log10 of the molar value.

Legend:
A549 = test: In-house cancer cell viability screen (AlamarBlue); format: cell-based, human; details: for pIC50: Homo sapiens, AlamarBlue
LNCaP C-33 = test: In-house cancer cell viability screen (AlamarBlue); format: cell-based; details: Homo sapiens, LnCAP-C33, 72 h
SJSA1-OSA = test: Eurofins OncoPanel (CellTiter-Glo); format: cell-based; details: Homo sapiens, 72 h, 3 days
SU-DHL-10 = test: Eurofins OncoPanel (CellTiter-Glo); format: cell-based; details: Homo sapiens, SU-DHL10, 72 h, 3 days
U2OS = test: Eurofins OncoPanel (CellTiter-Glo); format: cell-based; details: Homo sapiens, 72 h, 3 days
NCI-H460 = test: cells; format: cell-based; details: Homo sapiens, NCI-60, 48 h
HCT-116 = test: cells; format: cell-based; details: Homo sapiens, NCI-60, 48 h
HT29 = test: cells; format: cell-based; details: Homo sapiens, HT-29, NCI-60, 48 h
SW-620 = test: cells; format: cell-based; details: Homo sapiens, NCI-60, 48 h
[1] = test system: BB5 patient biopsy derived cell line (breast adenocarcinoma); test: BB1 and BB5 adenoma versus carcinoma screen (confocal imaging); format: cell-based; details: Homo sapiens, 60 h, percent ChromaLive negative
[2] = test system: HT-29 colorectal cancer xenograft; test: HT-29 xenograft study; format: in vivo, mouse; details: 17 days, PAV-951 3 mg kg^−1 IV, Irinotecan 60 mg kg^−1 IP
Experimental: In the second animal efficacy study, human HT-29 colorectal adenocarcinoma cells were grafted subcutaneously onto mice. After tumour establishment, the animals received treatment with vehicle, 3 mg kg^−1 PAV-951 or 60 mg kg^−1 of a positive control drug Irinotecan. […]. Survival was not assessed as part of the study.
HT-29 cells growing in HBSS medium were suspended in Matrigel. 0.1 ml of the cell suspension containing 5 × 10^6 cells were injected subcutaneously into the left flank region of male, 6–8 week old SCID mice. After tumour establishment, animals were divided randomly into groups of six and treated daily by IV with vehicle daily for 17 days, 3 mg kg^−1 PAV-951 three times per week for 17 days, or treated by IP with 60 mg kg^−1 Irinotecan every 4 days for 14 days. Tumour volume was calculated using the formula: (L × W2)/2 where L is the largest diameter and W is the smallest diameter of the tumour. Statistical analysis was performed using GraphPad Prism (Ver. 5.03). Statistical analysis of tumour growth inhibition between the Control and Treated groups was performed by using ne-way ANOVA followed by Dunnett’s test.

Hennes 20 cells = test: Cell growth recovery assay; format: cell-based, Chinese hamster; details: PAV-617 0.3 µM 24 h, PAV-951 0.4 µM 6 h, followed to day 14
Experimental: To confirm that the inhibition observed in low-density Hennes 20 cells resulted from temporary arrest of proliferation and not cell death, compound was removed after a period of treatment and cell growth was measured over the subsequent two weeks for recovery potential. Once compound was removed, following a period of recovery, cell proliferation was restored over time for both chemotypes (see figure 1f,g). By day 11, cell density in compound-treated cells had caught up to that in the DMSO-treated cells (see figure 1f,g).
A 96-well plate was seeded with either Hennes 20 or LNCaP C-33 cells at 500 cells per well in 90 µl of minimum essential media and incubated at 37°C for 24 h. 0.5% DMSO was diluted in media and added to six control wells for each plate. PAV-617 was diluted in media and added to three wells at a concentration of 0.3 µM. PAV-951 was diluted in media and added to concentration of 0.4 µM. After 24 h of PAV-617 treatment or 6 h of PAV-951 treatment, the medium containing compound was removed and replaced with fresh media. After 72 h (day 5), plates were assayed with AlamarBlue and fluorescence was read at 530/590. The medium containing AlamarBlue was removed and replaced with fresh media. After another 72 h (day 8) plates were assayed with AlamarBlue and fluorescence again, then medium containing AlamarBlue was removed and replaced with fresh media. […]

[3] = test system: A549 human lung cancer xenograft; details: mouse, in vivo
SR = test: cells; details: Homo sapiens, 48 h
HOP-92 = test: cells; details: Homo sapiens, HOP-92, 48 h
NCI-H23 = test: cells; details: Homo sapiens, NCI-H23, 48 h
NCI-H322M = test: cells; details: Homo sapiens, 48 h
HCT-15 = test: cells; details: Homo sapiens, HCT-15, 48 h
SF-539 = test: cells; details: Homo sapiens, SF-539, 48 h
SNB-19 = test: cells; details: Homo sapiens, SNB-19, 48 h
UACC-257 = test: cells; details: Homo sapiens, UACC-257, 48 h
OVCAR-4 = test: cells; details: Homo sapiens, OVCAR-4, 48 h
TK-10 = test: cells; details: Homo sapiens, TK-10, 48 h
MCF7 = test: cells; details: Homo sapiens, MCF7, 48 h
MDA-MB-231/ATCC = test: cells; details: Homo sapiens, MDA-MB-231, 48 h
BT-549 = test: cells; details: Homo sapiens, BT-549, 48 h
MeWo = test: Eurofins OncoPanel (CellTiter-Glo); details: Homo sapiens, 72 h

Structure (SMILES): CC(C)CCNc1ncnc2cc(N3CCN(c4ccc5c(NCCC(C)C)ncnc5c4)CC3)ccc12 [PAV-951]
- change of potency when compound is added at the time of plating rather than 24 h later (A549; A549): increased significantly
- pIC50 (A549; A549 (treatment 0 h after plating)): 5.67
- pIC50 (A549; A549 (treatment 24 h after plating), 72 h): 4.96
- pIC50 (LNCaP C-33): 6.27
- pIC50 (SJSA1-OSA): 6.14
- pIC50 (SU-DHL-10): 6.64
- pIC50 (U2OS): 6.43
- GI50 (NCI-H460): 203 nM
- GI50 (HCT-116): 185 nM
- GI50 (HT29): 345 nM
- GI50 (SW-620): 194 nM
- pIC50 [1]: 6.30
- tumour growth inhibition (TGI) [2]: 52%
- recovery of cell growth after removal of compound (Hennes 20 cells): recovered over time
- adverse effects at the doses of the xenograft studies [3]: without any serious adverse effects
- GI50 (SR): 51.9 nM
- CC50 (SR; read-out: LC50): 1900 nM
- GI50 (HOP-92): 1230 nM
- CC50 (HOP-92; read-out: LC50): 6.22 µM
- GI50 (NCI-H23): 1470 nM
- CC50 (NCI-H23; read-out: LC50): 5.62 µM
- GI50 (NCI-H322M): 1200 nM
- CC50 (NCI-H322M; read-out: LC50): 5.55 µM
- GI50 (HCT-15): 173 nM
- CC50 (HCT-15; read-out: LC50): 815 nM
- GI50 (SF-539): 683 nM
- CC50 (SF-539; read-out: LC50): 4.53 µM
- GI50 (SNB-19): 1170 nM
- CC50 (SNB-19; read-out: LC50): 5.18 µM
- GI50 (UACC-257): 1710 nM
- CC50 (UACC-257; read-out: LC50): 5.98 µM
- GI50 (OVCAR-4): 452 nM
- CC50 (OVCAR-4; read-out: LC50): 4.56 µM
- GI50 (TK-10): 2160 nM
- CC50 (TK-10; read-out: LC50): 6.14 µM
- GI50 (MCF7): 177 nM
- CC50 (MCF7; read-out: LC50): 924 nM
- GI50 (MDA-MB-231/ATCC): 488 nM
- CC50 (MDA-MB-231/ATCC; read-out: LC50): 4.42 µM
- GI50 (BT-549): 1590 nM
- CC50 (BT-549; read-out: LC50): 6.04 µM
- pIC50 (MeWo): 5.93
